Experimental data taken from patent US11969423B2, “Compounds” (GLAXOSMITHKLINE INTELLECTUAL PROPERTY DEVELOPMENT LIMITED, priority 2017, dated 2024).

Test system: not given
Conditions: male, Swiss (Crl:CD-1(ICR)), mouse, in vivo

Structure (SMILES)	Mice liver hypertrophy (%)
O=C(CCC(F)(F)F)N1CCC(c2ccnc(C(F)(F)F)c2)CC1 [Example 18, 4,4,4-trifluoro-1-(4-(2-(trifluoromethyl)pyridin-4-yl)piperidin-1-yl)butan-1-one]	6%
O=C(CCC(F)(F)F)N1CCC(c2cncc(Cl)c2)CC1 [Example 30, 1-(4-(5-chloropyridin-3-yl)piperidin-1-yl)-4,4,4-trifluorobutan-1-one]	2%

Test system: not given
Conditions: male, SD, in vivo
Procedure: Male SD rats (n=3/compound/route) were used for single intravenous and oral dose PK studies. Compounds were administered intravenously (infusion over 30 minutes) as a solution (Formulation: 5% DMSO: 20% Encapsine in saline; target dose 1 mg/kg) and orally as suspensions (Formulation: 1% Methyl Cellulose; target dose 5 mg/kg). After dosing, blood samples ([…]) were collected. Sampling times were the following:
0.25, 0.5 (just before end of infusion), 0.58, 0.75, 1, 1.5, 2, 3, 5, 7, and 24 hours; n=3 rats (intravenous infusion administration) 0.25, 0.5, 1, 2, 4, 6, 8, and 24 hours; n=3 rats (oral gavage administration)
All the blood samples were diluted with 25 μL of water and stored at −80° C. until analysis. Rat blood samples were analyzed for each compound using a method upon protein precipitation followed by LC-MS/MS analysis. All pharmacokinetic parameters were obtained by non-compartmental analysis of the different blood concentration-time profiles using WinNonLin Phoenix Version 6.3.

Structure (SMILES)	F % (rat, 5 mg/kg)
O=C(CCC(F)(F)F)N1CCC(c2ccnc(C(F)(F)F)c2)CC1 [Example 18, 4,4,4-trifluoro-1-(4-(2-(trifluoromethyl)pyridin-4-yl)piperidin-1-yl)butan-1-one]	75%
O=C(CCC(F)(F)F)N1CCC(c2cncc(Cl)c2)CC1 [Example 30, 1-(4-(5-chloropyridin-3-yl)piperidin-1-yl)-4,4,4-trifluorobutan-1-one]	77%

Test system: PPAR marker
Conditions: male, Swiss (Crl:CD-1(ICR)), mouse

Structure (SMILES)	In vivo PPAR marker fold increase
O=C(CCC(F)(F)F)N1CCC(c2ccnc(C(F)(F)F)c2)CC1 [Example 18, 4,4,4-trifluoro-1-(4-(2-(trifluoromethyl)pyridin-4-yl)piperidin-1-yl)butan-1-one]	<6 fold
O=C(CCC(F)(F)F)N1CCC(c2cncc(Cl)c2)CC1 [Example 30, 1-(4-(5-chloropyridin-3-yl)piperidin-1-yl)-4,4,4-trifluorobutan-1-one]	<2 fold

Test system: M. tuberculosis H37Rv-GFP
Assay type: cell-based, Mycobacterium tuberculosis
Conditions: read-out: EC50_H37Rv

Structure (SMILES)	EC50
O=C(CCC(F)(F)F)N1CCC(c2cc(C(F)(F)F)ccn2)CC1 [Example 6, 4,4,4-trifluoro-1-[4-[4-(trifluoromethyl)-2-pyridyl]-1-piperidyl]butan-1-one]	< 0.05 µM
O=C(CCC(F)(F)F)N1CCC(c2ncccn2)CC1 [Example 28, 4,4,4-trifluoro-1-[4-(pyrimidin-2-yl)piperidin-1-yl]butan-1-one]	1 to 10 µM
O=C(CCC(F)(F)F)N1CCC(c2cnccn2)CC1 [Example 1, 4,4,4-trifluoro-1-(4-pyrazin-2-yl-1-piperidyl)butan-1-one]	0.5 to 1 µM
O=C(CCC(F)(F)F)N1CCC(c2cccnc2C(F)(F)F)CC1 [Example 11, 4,4,4-trifluoro-1-[4-[2-(trifluoromethyl)-3-pyridyl]-1-piperidyl]butan-1-one]	1 to 10 µM
O=C(CCC(F)(F)F)N1CCC(F)(c2cccnc2)CC1 [Example 2, 4,4,4-trifluoro-1-[4-fluoro-4-(3-pyridyl)-1-piperidyl]butan-1-one]	< 0.05 µM
O=C(CCC(F)(F)F)N1CCC(c2cncc(C(F)(F)F)c2)CC1 [Example 7, 4,4,4-trifluoro-1-[4-[5-(trifluoromethyl)-3-pyridyl]-1-piperidyl]butan-1-one]	< 0.05 µM
O=C(CCC(F)(F)F)N1CCC(F)(c2ccnc(Cl)c2)CC1 [Example 41]	< 0.05 µM
O=C(CCCC(F)(F)F)N1CCC(c2cncc(Cl)c2)CC1 [Example 31, 1-(4-(5-chloropyridin-3-yl)piperidin-1-yl)-5,5,5-trifluoropentan-1-one]	0.05 to 0.25 µM
O=C(CCC(F)(F)F)N1CCC(c2cncnc2)CC1 [Example 16]	1 to 10 µM
O=C(CCC(F)(F)F)N1CCC(c2cnc(C(F)(F)F)cn2)CC1 [Example 21, 4,4,4-trifluoro-1-(4-(5-(trifluoromethyl)pyrazin-2-yl)piperidin-1-yl)butan-1-one]	0.5 to 1 µM
O=C(CCC(F)(F)F)N1CCC(c2nccc(C(F)(F)F)n2)CC1 [Example 15]	1 to 10 µM
O=C(CCC(F)(F)F)N1CCC(c2cccc(C(F)(F)F)n2)CC1 [Example 8, 4,4,4-trifluoro-1-[4-[6-(trifluoromethyl)-2-pyridyl]-1-piperidyl]butan-1-one]	0.05 to 0.25 µM
O=C(CCC(F)(F)F)N1CCC(c2ccnc(Cl)c2)CC1 [Example 25, 1-(4-(2-chloropyridin-4-yl)piperidin-1-yl)-4,4,4-trifluorobutan-1-one]	< 0.05 µM
O=C(CCC(F)(F)F)N1CCC(c2ccnc(C(F)(F)F)c2)CC1 [Example 18, 4,4,4-trifluoro-1-(4-(2-(trifluoromethyl)pyridin-4-yl)piperidin-1-yl)butan-1-one]	< 0.05 µM
O=C(CCC(F)(F)F)N1CCC(c2ccnc(F)c2)CC1 [Example 20, 4,4,4-trifluoro-1-(4-(2-fluoropyridin-4-yl)piperidin-1-yl)butan-1-one]	< 0.05 µM
O=C(CCC(F)(F)F)N1CCC(F)(c2ccnc(F)c2)CC1 [Example 37, 4,4,4-trifluoro-1-(4-fluoro-4-(2-fluoropyridin-4-yl)piperidin-1-yl)butan-1-one]	< 0.05 µM
O=C(CCC(F)(F)F)N1CCC(c2cncc(Cl)n2)CC1 [Example 32, 1-(4-(6-chloropyrazin-2-yl)piperidin-1-yl)-4,4,4-trifluorobutan-1-one]	< 0.05 µM
O=C(CCC(F)(F)F)N1CCC(F)(c2ccc(F)nc2)CC1 [Example 40]	0.05 to 0.25 µM
O=C(CCC(F)(F)F)N1CCC(F)(c2cncc(Cl)n2)CC1 [Example 36, 1-(4-(6-chloropyrazin-2-yl)-4-fluoropiperidin-1-yl)-4,4,4-trifluorobutan-1-one]	0.05 to 0.25 µM
O=C(CCC(F)(F)F)N1CCC(c2cncc(F)c2)CC1 [Example 3, 4,4,4-trifluoro-1-[4-(5-fluoro-3-pyridyl)-1-piperidyl]butan-1-one]	0.05 to 0.25 µM
O=C(CCC(F)(F)F)N1CCC(c2ccc(F)nc2F)CC1 [Example 14, 1-[4-(2,6-difluoro-3-pyridyl)-1-piperidyl]-4,4,4-trifluoro-butan-1-one]	0.05 to 0.25 µM

Structure (SMILES)	EC50
O=C(CCC(F)(F)F)N1CCC(F)(c2ccnc(C(F)(F)F)c2)CC1 [Example 35, 4,4,4-trifluoro-1-(4-fluoro-4-(2-(trifluoromethyl)pyridin-4-yl)piperidin-1-yl)butan-1-one]	< 0.05 µM
O=C(CCC(F)(F)F)N1CCC(c2cccc(Cl)n2)CC1 [Example 27, 1-(4-(6-chloropyridin-2-yl)piperidin-1-yl)-4,4,4-trifluorobutan-1-one]	0.05 to 0.25 µM
O=C(CCC(F)(F)F)N1CCC(F)(c2cncc(Cl)c2)CC1 [Example 29, 1-(4-(5-chloropyridin-3-yl)-4-fluoropiperidin-1-yl)-4,4,4-trifluorobutan-1-one]	< 0.05 µM
O=C(CCC(F)(F)F)N1CCC(c2ccc(F)cn2)CC1 [Example 17, 4,4,4-trifluoro-1-[4-(5-fluoro-2-pyridyl)-1-piperidyl]butan-1-one]	< 0.05 µM
O=C(CCC(F)(F)F)N1CCC(c2cnc(F)c(F)c2)CC1 [Example 23, 1-(4-(5,6-difluoropyridin-3-yl)piperidin-1-yl)-4,4,4-trifluorobutan-1-one]	< 0.05 µM
O=C(CCC(F)(F)F)N1CCC(c2ccc(F)nc2)CC1 [Example 4, 4,4,4-trifluoro-1-[4-(6-fluoro-3-pyridyl)-1-piperidyl]butan-1-one]	0.05 to 0.25 µM
O=C(CCC(F)(F)F)N1CCC(c2cncc(Cl)c2)C1 (centres unmarked) [Example 38, 1-(3-(5-chloropyridin-3-yl)pyrrolidin-1-yl)-4,4,4-trifluorobutan-1-one]	< 0.05 µM
O=C(CCC(F)(F)F)N1CCC(F)(c2cncc(C(F)(F)F)c2)CC1 [Example 34, 4,4,4-trifluoro-1-(4-fluoro-4-(5-(trifluoromethyl)pyridin-3-yl)piperidin-1-yl)butan-1-one]	< 0.05 µM
O=C(CCC(F)(F)F)N1CCC(c2cncc(C(F)(F)F)n2)CC1 [Example 24, 4,4,4-trifluoro-1-(4-(6-(trifluoromethyl)pyrazin-2-yl)piperidin-1-yl)butan-1-one]	0.05 to 0.25 µM
O=C(CCC(F)(F)F)N1CCC(c2cccnn2)CC1 [Example 19, 4,4,4-trifluoro-1-[4-(pyridazin-3-yl)piperidin-1-yl]butan-1-one]	1 to 10 µM
Cc1cc(C2CCN(C(=O)CCC(F)(F)F)CC2)ccn1 [Example 22, 4,4,4-trifluoro-1-(4-(2-methylpyridin-4-yl)piperidin-1-yl)butan-1-one]	< 0.05 µM
O=C(CCC(F)(F)F)N1CCC(c2ccc(C(F)(F)F)nc2)CC1 [Example 5, 4,4,4-trifluoro-1-[4-[6-(trifluoromethyl)-3-pyridyl]-1-piperidyl]butan-1-one]	0.5 to 1 µM
COc1ccc(C2CCN(C(=O)CCC(F)(F)F)CC2)cn1 [Example 10, 4,4,4-trifluoro-1-[4-(6-methoxy-3-pyridyl)-1-piperidyl]butan-1-one]	0.05 to 0.25 µM
O=C(CCC(F)(F)F)N1CCC(c2ccncc2F)CC1 [Example 26, 4,4,4-trifluoro-1-(4-(3-fluoropyridin-4-yl)piperidin-1-yl)butan-1-one]	0.05 to 0.25 µM
COc1cncc(C2CCN(C(=O)CCC(F)(F)F)CC2)c1 [Example 12, 4,4,4-trifluoro-1-[4-(5-methoxy-3-pyridyl)-1-piperidyl]butan-1-one]	0.5 to 1 µM
O=C(CCC(F)(F)F)N1CCC(c2cncc(Cl)c2)CC1 [Example 30, 1-(4-(5-chloropyridin-3-yl)piperidin-1-yl)-4,4,4-trifluorobutan-1-one]	< 0.05 µM
O=C(CCC(F)(F)F)N1CCC(F)(c2ccccn2)CC1 [Example 33, 4,4,4-trifluoro-1-(4-fluoro-4-(pyridin-2-yl)piperidin-1-yl)butan-1-one]	0.05 to 0.25 µM
O=C(CCC(F)(F)F)N1CCC(c2ncc(F)cc2F)CC1 [Example 13, 1-[4-(3,5-difluoro-2-pyridyl)-1-piperidyl]-4,4,4-trifluoro-butan-1-one]	0.05 to 0.25 µM
O=C(CCC(F)(F)F)N1CCC(F)(c2cc(C(F)(F)F)ccn2)CC1 [Example 39, 4,4,4-trifluoro-1-[4-fluoro-4-[4-(trifluoromethyl)-2-pyridyl]-1-piperidyl]butan-1-one]	0.05 to 0.25 µM
O=C(CCC(F)(F)F)N1CCC(c2cccc(F)n2)CC1 [Example 9, 4,4,4-trifluoro-1-[4-(6-fluoro-2-pyridyl)-1-piperidyl]butan-1-one]	0.05 to 0.25 µM
